Read-outs that look alike come from different tables or passages of the source.
Columns and labels:
[1] = system: Candida albicans ATCC 90028 NCCLS11; test: Antifungal MIC assay; format: cell-based; conditions: for MIC: Candida albicans, ATCC90028, comparator antifungals, read-out: MIC* Candida albicans ATCC 90028; for MIC Ca: initial CO-ADD dose-response screening, ≥80% growth inhibition
Protocol: For the fungal assays, both fungi (yeast) strains were cultured for 3 days on Yeast Extract-Peptone Dextrose (YPD; Becton Dickinson 242720) agar at 30 °C. A yeast suspension of 1 × 10^6 to 5 × 10^6 CFU/mL (as determined by OD530) was prepared from five colonies from the agar plates, subsequently diluted with Yeast Nitrogen Base media (YNB; Becton Dickinson 233520), and added to each well of the compound containing plates (384-well plates, NBS; Corning CLS3640), giving a final cell density of 2.5 × 10^3 CFU/mL and a total volume of 50 μL. Plates were covered and incubated at 35 °C for 36 h without shaking. […] […], equivalent to ″optically clear-to-slightly hazy″ or MIC score of 0–1 as per CLSI guidelines M27 Reference Method for Broth Dilution Antifungal Susceptibility Testing of Yeasts. […] Fluconazole (Sigma F8929) was used as internal control on each plate for all strains. All compounds were tested as two technical replicates in two to four independent biological assays, n = 4–8 final data.

[2] = system: Cryptococcus neoformans H99 ATCC 208821 type strain; test: Antifungal MIC assay; format: cell-based; conditions: for MIC: Cryptococcus neoformans, ATCC208821, comparator antifungals, read-out: MIC* Cryptococcus neoformans ATCC 208821; for MIC Cn: initial CO-ADD dose-response screening, ≥80% growth inhibition
Protocol: (§1) For the fungal assays, both fungi (yeast) strains were cultured for 3 days on Yeast Extract-Peptone Dextrose (YPD; Becton Dickinson 242720) agar at 30 °C. A yeast suspension of 1 × 10^6 to 5 × 10^6 CFU/mL (as determined by OD530) was prepared from five colonies from the agar plates, subsequently diluted with Yeast Nitrogen Base media (YNB; Becton Dickinson 233520), and added to each well of the compound containing plates (384-well plates, NBS; Corning CLS3640), giving a final cell density of 2.5 × 10^3 CFU/mL and a total volume of 50 μL. Plates were covered and incubated at 35 °C for 36 h without shaking. […] MIC values were recorded as the lowest concentration at which the growth was inhibited by ≥80%, equivalent to ″optically clear-to-slightly hazy″ or MIC score of 0–1 as per CLSI guidelines M27 Reference Method for Broth Dilution Antifungal Susceptibility Testing of Yeasts. […] Fluconazole (Sigma F8929) was used as internal control on each plate for all strains. All compounds were tested as two technical replicates in two to four independent biological assays, n = 4–8 final data.

[3] = system: Candida auris CBS10913 JCM 15448; test: Antifungal MIC assay, extended panel; format: cell-based; conditions: Candidozyma auris, comparator antifungals, read-out: MIC* Candida auris CBS10913
Protocol: (§2) For the fungal assays, both fungi (yeast) strains were cultured for 3 days on Yeast Extract-Peptone Dextrose (YPD; Becton Dickinson 242720) agar at 30 °C. A yeast suspension of 1 × 10^6 to 5 × 10^6 CFU/mL (as determined by OD530) was prepared from five colonies from the agar plates, subsequently diluted with Yeast Nitrogen Base media (YNB; Becton Dickinson 233520), and added to each well of the compound containing plates (384-well plates, NBS; Corning CLS3640), giving a final cell density of 2.5 × 10^3 CFU/mL and a total volume of 50 μL. Plates were covered and incubated at 35 °C for 36 h without shaking. […] MIC […] Reference Method for Broth Dilution Antifungal Susceptibility Testing of Yeasts. […] Fluconazole (Sigma F8929) was used as internal control on each plate for all strains. All compounds were tested as two technical replicates in two to four independent biological assays, n = 4–8 final data.

[4] = system: Candida auris CBS12373 KCTC 17810; test: Antifungal MIC assay, extended panel; format: cell-based; conditions: Candidozyma auris, comparator antifungals, read-out: MIC* Candida auris CBS12373
Protocol: as §2

[5] = system: Candida glabrata ATCC 90030 NCCLS 84; test: Antifungal MIC assay, extended panel; format: cell-based; conditions: Nakaseomyces glabratus, ATCC90030, comparator antifungals
Protocol: as §1

[6] = system: Candida tropicalis ATCC 750; test: Antifungal MIC assay, extended panel; format: cell-based; conditions: Candida tropicalis, ATCC750, comparator antifungals
Protocol: as §1

[7] = system: Cryptococcus deuterogattii ATCC 32609 VGII; test: Antifungal MIC assay, extended panel; format: cell-based; conditions: Cryptococcus deuterogattii, ATCC32609, comparator antifungals
Protocol: as §1

[8] = system: Cryptococcus deuterogattii CBS7750 VGII; Serotype B; test: Antifungal MIC assay, extended panel; format: cell-based; conditions: Cryptococcus deuterogattii, CBS7750, comparator antifungals
Protocol: as §1

[9] = system: Acinetobacter baumannii ATCC 19606 type strain; test: CO-ADD antibacterial MIC assay; format: cell-based; conditions: initial CO-ADD dose-response screening; ≥80% growth inhibition
Protocol: (§3) For the all the bacterial assays, each bacterial strain was cultured in cation-adjusted Mueller Hinton broth (CAMHB; Bacto Laboratories 212322) at 37 °C overnight. A sample of each culture was then diluted 40-fold in fresh CAMHB and incubated at 37 °C for 1.5–3 h. The resultant mid-log phase cultures were diluted with CAMHB (CFU/mL measured by OD600) and then added to each well of the compound-containing plates (384-well non-binding surface (NBS) plates; Corning CLS3640), giving a cell density of 5 × 10^5 CFU/mL and a total volume of 50 μL. Plates were covered and incubated at 37 °C for 18 h without shaking. Inhibition of bacterial growth was determined by measuring the absorbance at 600 nm (OD600) using media only as negative control and bacteria without inhibitors as positive control. MIC values were determined as the lowest concentration at which the growth was inhibited by ≥80% (equivalent to no visible growth by the eye). Colistin sulfate (Sigma C4461) and vancomycin HCl (Sigma 861987) were used as internal controls on each plate for Gram-negative and Gram-positive bacteria, respectively. All compounds were tested as two technical replicates in two independent biological assays, n = 4 final data.

[10] = system: Escherichia coli ATCC 25922 FDA control strain; test: CO-ADD antibacterial MIC assay; format: cell-based; conditions: initial CO-ADD dose-response screening; ≥80% growth inhibition
Protocol: as §3

[11] = system: Pseudomonas aeruginosa ATCC 27853 QC control strain; test: CO-ADD antibacterial MIC assay; format: cell-based; conditions: initial CO-ADD dose-response screening; ≥80% growth inhibition
Protocol: as §3

[12] = system: methicillin-resistant Staphylococcus aureus ATCC 43300; test: CO-ADD antibacterial MIC assay; format: cell-based; conditions: initial CO-ADD dose-response screening; ≥80% growth inhibition
Protocol: as §3

[13] = system: HEK-293 human embryonic kidney cells ATCC CRL-1573; conditions: initial CO-ADD screening, 20 h; for CC50: read-out: HEK CC50
Protocol: The cells were incubated together with the compounds for 20 h at 37 °C in 5% CO2. […] Tamoxifen (Sigma T5648) was used as internal control on each plate.

human red blood cells = format: cell-based; conditions: initial CO-ADD screening, 1 h; 10% hemolysis
Protocol: Human whole blood (Australian Red Cross) was washed three times with 3 vol of 0.9% NaCl and resuspended in a concentration of 0.5 × 10^8 cells/mL, determined by a manual cell count in a Neubauer hemocytometer. […] After incubation, the plates were centrifuged at 1000g for 10 min to pellet cells and debris; 25 μL of the supernatant was then transferred to reading plates (384-well, polystyrene plated (PS), Corning CLS3680), with hemolysis determined by measuring the supernatant absorbance at […] (OD405) using cells without inhibitors as negative control and cells with 1% Triton X-100 (Sigma T8787) as positive control. […] Melittin (Sigma M2272) was used as internal control on each plate.

[14] = ≥80% inhibition, converted with MW of Table S12

SMILES	MIC Ab [9]	MIC Ec [10]	MIC Pa [11]	MIC MRSA (Sa) [12]	MIC Ca [1]	MIC Cn [2]	CC50 [13]	RBC HC10 (human red blood cells)	HEK CC50 [13]	also measured
CCC(C)n1ncn(-c2ccc(N3CCN(c4ccc(OCC5COC(Cn6cncn6)(c6ccc(Cl)cc6Cl)O5)cc4)CC3)cc2)c1=O (stereo not shown) [Itraconazole, reference compound]										MIC ([1]; MIC = ≥80% inhibition): 0.062 to 0.25 µg/mL; MIC [1, 14]: 0.089 to 0.354 µM; MIC ([2]; MIC = ≥80% inhibition): 1 to 2 µg/mL; MIC [2, 14]: 1.42 to 2.83 µM; MIC ([3]; MIC = ≥80% inhibition): 0.063 µg/mL; MIC [3, 14]: 0.089 µM; MIC ([4]; MIC = ≥80% inhibition): 2 µg/mL; MIC [4, 14]: 2.83 µM; MIC ([5]; MIC = ≥80% inhibition): 32 µg/mL; MIC [5, 14]: 45 µM; MIC ([6]; MIC = ≥80% inhibition): 2 µg/mL; MIC [6, 14]: 2.83 µM; MIC ([7]; MIC = ≥80% inhibition): 2 to 8 µg/mL; MIC [7, 14]: 2.83 to 11.3 µM; MIC ([8]; MIC = ≥80% inhibition): 2 to 4 µg/mL; MIC [8, 14]: 2.83 to 5.67 µM
Nc1cc2cccnc2c2ncccc12.O=C([O][Eu]([O]C(=O)c1ccccc1F)[O]C(=O)c1ccccc1F)c1ccccc1F [Eu-S4]	> 20 µM	> 20 µM	> 20 µM	> 20 µM	> 20 µM	20 µM	3.3 µM	1.2 µM		
Cc1cccc(C(=C=C(c2cccc(C)n2)C(C)(C)C)c2ccccc2)n1.[Cl][Pt]([Cl])([Cl])[Cl] [HM_C5]	> 32 µg/mL	> 32 µg/mL	> 32 µg/mL	> 32 µg/mL	32 µg/mL	> 32 µg/mL		> 32 µg/mL	> 32 µg/mL	
O=C([O][Eu]([O]C(=O)c1ccc(F)cc1F)[O]C(=O)c1ccc(F)cc1F)c1ccc(F)cc1F.c1ccc(-c2ccnc3c2ccc2c(-c4ccccc4)ccnc23)cc1 [Eu-S2]	> 20 µM	> 20 µM	> 20 µM	1.25 µM	10 µM	0.625 µM	15.9 µM	0.7 µM		
Cc1cccc2[n+]1[Au-]([Cl])([Cl])[n+]1c(C)cccc1C(c1ccccc1)=C=C2c1ccccc1.[Cl-] [Au-S11]	> 32 µg/mL	32 µg/mL	> 32 µg/mL	16 µg/mL	4 µg/mL	16 µg/mL		> 32 µg/mL	> 32 µg/mL	

Further lines, with some results ahead:

MIC Ab [9]	MIC Ec [10]	MIC Pa [11]	MIC MRSA (Sa) [12]	MIC Ca [1]	MIC Cn [2]	SMILES	CC50 [13]	RBC HC10 (human red blood cells)	HEK CC50 [13]	also measured
> 32 µg/mL	> 32 µg/mL	> 32 µg/mL	16 µg/mL	4 µg/mL	<= 0.25 μg/mL	Cc1cccc2[n+]1[Au-]([Cl])([Cl])[n+]1c(C)cccc1C(C(C)(C)C)=C=C2c1ccccc1.[Cl-] [Au-S12]		<= 0.25 μg/mL	> 32 µg/mL	
32 µg/mL	> 32 µg/mL	> 32 µg/mL	<= 0.25 μg/mL	<= 0.25 μg/mL	<= 0.25 μg/mL	Cc1cccc2[n+]1[Pd-2]([Cl])([Cl])[n+]1c(C)cccc1C(C(C)(C)C)=C=C2c1ccccc1 [HM_C2]		> 32 µg/mL	1.1 µg/mL	
32 µg/mL	> 32 µg/mL	> 32 µg/mL	<= 0.25 μg/mL	<= 0.25 μg/mL	<= 0.25 μg/mL	Cc1cccc(C2(c3ccccc3)[C]([Au-][Cl])=C(c3ccccc3)c3cccc(C)[n+]32)n1 (stereo not shown) [Au-S14]		23.7 µg/mL	0.7 µg/mL	
> 20 µM	> 20 µM	> 20 µM	10 µM	> 20 µM	5 µM	O=C([O][Eu]([O]C(=O)c1cc(F)ccc1F)[O]C(=O)c1cc(F)ccc1F)c1cc(F)ccc1F.c1ccc(-c2ccnc3c2ccc2c(-c4ccccc4)ccnc23)cc1 [Eu-S1]	> 20 µM	> 20 µM		
> 32 µg/mL	> 32 µg/mL	> 32 µg/mL	> 32 µg/mL	16 µg/mL	16 µg/mL	O=C([O][Ag])c1ccc(N2N=C(/C=C/c3ccccc3)CC2c2ccccc2)cc1.O=C([O][Ag])c1ccc(N2N=C(/C=C/c3ccccc3)CC2c2ccccc2)cc1 (racemic) [Ag3]		> 32 µg/mL	> 32 µg/mL	

From article PMC9597602, “Metal Complexes as Antifungals? From a Crowd-Sourced Compound Library to the First In Vivo Experiments” (JACS Au, 2022)
